Data as given in ChEMBL document CHEMBL1201862, “PubChem BioAssay data set” (2004).
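These data come from cells grown in 96-well plates and exposed to compound for 48 hours at five concentrations. The concentration for 50% growth inhibition is given as GI50.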 Activity calls are given as the source filed them. Cut-off read from the data, not from the text of the source: active = GI50 up to about 1.1 µM and inactive = higher.

Tests used:
Assay in all cases: NCI tumour cell line growth inhibition, 48 h
[1] = system: SNB-19
[2] = system: A498
[3] = system: KM-20L2
[4] = system: CAKI-1
[5] = system: SR
[6] = system: SF-268
[7] = system: T47D
[8] = system: HOP-62
[9] = system: OVCAR-5
[10] = system: SK-MEL-28
[11] = system: DU-145
[12] = system: Malme-3M
[13] = system: OVCAR-8
[14] = system: Hs-578T
[15] = system: RXF 393
[16] = system: COLO 205
[17] = system: 786-0
[18] = system: OVCAR-3
[19] = system: BT-549
[20] = system: K562
[21] = system: CCRF-CEM
[22] = system: PC-3
[23] = system: IGROV-1
[24] = system: NCI-H460
[25] = system: SK-MEL-5
[26] = system: HCT-116
[27] = system: M14
[28] = system: SF-295
[29] = system: HCT-15
[30] = system: NCI-H226
[31] = system: SNB-78
[32] = system: NCI-H522
[33] = system: UACC-62
[34] = system: ACHN
[35] = system: TK-10
[36] = system: MDA-MB-435
[37] = system: SN12C
[38] = system: SF-539
[39] = system: MOLT-4
[40] = system: UO-31
[41] = system: SK-MEL-2
[42] = system: HOP-92
[43] = system: UACC-257
[44] = system: MDA-N
[45] = system: SW-620
[46] = system: M19-MEL
[47] = system: LOX IMVI
[48] = system: MDA-MB-231
[49] = system: MCF7
[50] = system: NCI/ADR-RES
[51] = system: RPMI-8226
[52] = system: U-251
[53] = system: EKVX
[54] = system: LXFL 529
[55] = system: SNB-75
[56] = system: NCI-H23
[57] = system: A549
[58] = system: OVCAR-4
[59] = system: HCC 2998
[60] = system: HL-60
[61] = system: KM12
[62] = system: DMS-114
[63] = system: HT-29
[64] = system: SK-OV-3

Measured: GI50

CS(=O)(=O)OCCN(CCOS(C)(=O)=O)c1ccc(/C=N/c2ccc3oc(=O)ccc3c2)cc1
inactive: [1] 8.97 µM | [2] 2 µM | [3] 2.64 µM | [6] 5.13 µM | [7] 5.6 µM | [8] 1.89 µM | [9] 3.24 µM | [10] 12.9 µM | [12] 8.73 µM | [13] 6.97 µM | [14] 28.1 µM | [16] 2.05 µM | [18] 3.58 µM | [19] 10.5 µM | [20] 24.6 µM | [22] 16.6 µM | [23] 12 µM | [25] 7.08 µM | [26] 37.7 µM | [27] 2.82 µM | [30] 3.53 µM | [31] 2.12 µM | [33] 1.8 µM | [35] 2.45 µM | [36] 11.1 µM | [37] 6.78 µM | [38] 4.43 µM | [41] 15.8 µM | [42] 12.3 µM | [43] 6.82 µM | [44] 10.9 µM | [45] 14.2 µM | [46] 13.2 µM | [47] 7.23 µM | [48] 32.9 µM | [49] 3.59 µM | [50] 8.59 µM | [51] 6.53 µM | [52] 9.38 µM | [53] 8.2 µM | [54] 13.1 µM | [55] 2.43 µM | [56] 2.04 µM | [57] 3.47 µM | [58] 11.7 µM | [59] 1.61 µM | [60] 1.71 µM | [61] 8.41 µM | [63] 5.66 µM
7.21 µM: [29]
active: [4] 0.622 µM | [5] 0.395 µM | [11] 0.968 µM | [15] 0.553 µM | [17] 0.321 µM | [21] 0.871 µM | [24] 0.0313 µM | [28] 0.933 µM | [32] 0.211 µM | [34] 0.492 µM | [39] 0.318 µM | [40] 0.959 µM | [62] 0.714 µM | [64] 1.11 µM
